From US12583818B2 (DAEGU-GYEONGBUK MEDICAL INNOVATION FOUNDATION, priority 2020, dated 2026)
Where two headings read alike, the source gives them in different places.

Experiments:
[1] = biological target: T1, Pin1 (Homo sapiens, UniProt Q13526); assay: Evaluation of Pin1 enzyme inhibitory activity (Sensolyte Green Pin1 assay kit); format: biochemical
T1 construct: purchased Anaspec
Summary of the method: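 Pin1 activity was measured with a fluorogenic kit assay (Sensolyte Green) using substrate prepared at 1 μM and protein at 50 μg/ml, both pre-mix concentrations. Compound working solutions were 100, 10, 1 or 0.1 μM, and reactions ran 2 h at room temperature in the dark, read at 490/520 nm. Inhibition was graded A–D by concentration.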

[2] = tested on: MDA-MB 231 triple negative breast cancer cell line; assay: MDA-MB 231 protein expression inhibition (Western blotting, cycline D1 vs Vinculin); format: cell-based; conditions: Homo sapiens, compound 10 μM, 72 hours, cycline D1 Western blot, read-out: MBA-MB-231 (amount of the protein compared to the DMSO-treated control group)
Procedure: In order to confirm the ability of the compound represented by formula 1 according to the present invention to inhibit the protein expression of MDA-MB 231 triple negative breast cancer cell line, the following experiment was performed, and the results are shown in Table 3 below.
MDA-MB-231 cells were cultured in a 5% CO2 incubator at 37° C. using RPMI medium supplemented with 10% FBS and 1% penicillin/streptomycin.
The cells were washed with PBS once a day, and then replaced with a new medium. The cells grown at the density of at least 90% 1 day before the experiment were detached using trypsin/EDTA, and then plated at the density of 100,000 per well in a 6-well plate.
On the next day of culture, the compound prepared in each example was treated at a concentration of 10 μM, and DMSO was treated at a concentration of 0.1% of the total as the control, followed by incubation for 72 hours. After 72 hours, the cells were washed twice with PBS, collected by scraping, and centrifuged at 13,000 rpm for 3 minutes to remove all the supernatant and only cells were taken.
RIPA buffer (containing 1× protease inhibitor and phosphatase inhibitor) was added to the prepared cells (80 μl/well), and the plate was shaken once every 5 minutes to disrupt the cells for a total of 15 minutes. The disrupted cells were centrifuged at 13,000 rpm for 15 minutes to collect only the supernatant protein. The obtained protein was quantified using a BCA protein quantification kit (Pierece, MA, USA), and a total of 10 μg of the protein was used for Western blotting.
The protein sample was isolated by 10% SDS-PAGE, and transferred to a PVDF membrane. Anti-human cycline D1 antibody (Cell signal) and anti-Vinculin antibody were bound to the protein sample, and the expression of the protein was measured by using an ECL reagent and LAS4000 equipment. The measurement results were quantified and generalized using ImageJ. The results are shown in Table 3 below by dividing the grades A to D according to the amount of the protein compared to the DMSO-treated control group.

[3] = concentration at which the Pin1 enzyme activity is inhibited, 2 hours at room temperature, fluorescence 490 nm/520 nm, read-out: Pin 1 inhibition

T1 sequence (Q13526 whole entry): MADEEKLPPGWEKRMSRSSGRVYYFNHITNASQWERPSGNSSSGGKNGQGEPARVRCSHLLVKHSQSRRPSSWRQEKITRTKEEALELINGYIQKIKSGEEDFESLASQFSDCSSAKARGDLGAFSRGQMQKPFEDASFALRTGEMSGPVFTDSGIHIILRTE

| IC50 [1, 3] | IC50 ([1]; Table 2, read-out: concentration at which Pin1 inhibitory activity was exhibited) | SMILES | activity at 10 µM [2] |
| --- | --- | --- | --- |
| 10 to 100 µM |  | CCN(CC)CCCOc1ccc(S(=O)(=O)NCCCc2c[nH]c3ccccc23)cc1 [Example 35, N-(3-(1H-indol-3-yl)propyl)-4-(3-(diethylamino)propoxy)benzenesulfonamide] | 0 to 35% |
| 1 to 10 µM |  | CN1CCN(CCCOc2ccc(S(=O)(=O)NCCCc3c[nH]c4ccccc34)cc2)CC1 [Example 31, N-(3-(1H-indol-3-yl)propyl)-4-(3-(4-methylpiperazin-1-yl)propoxy)benzenesulfonamide] | 50 to 70% |
| 10 to 100 µM |  | CN1CCC(CCOc2ccc(S(=O)(=O)NCCCc3c[nH]c4ccccc34)cc2)CC1 [Example 55, N-(3-(1H-indol-3-yl)propyl)-4-(2-(1-methylpiperidin-4-yl)ethoxy)benzenesulfonamide] | 70 to 100% |
| 1 to 10 µM |  | O=S(=O)(NCCCc1c[nH]c2ccc(Cl)cc12)c1ccc(OCCCN2CCC(F)(F)CC2)cc1 [Example 82, N-(3-(5-chloro-1H-indol-3-yl)propyl)-4-(3-(4,4-difluoropiperidin-1-yl)propoxy)benzenesulfonamide] | 70 to 100% |
| < 1 µM | < 1 µM | CN1CCN(CCCOc2ccc(S(=O)(=O)NCCCc3c[nH]c4ccc(Cl)cc34)c3ccccc23)CC1 [Example 86, N-(3-(5-chloro-1H-indole-3-yl)propyl)-4-(3-(4-methylpiperazine-1-yl)propoxy)naphthalene-1-sulfonamide] | 70 to 100% |
| 1 to 10 µM |  | CN1CCC(CCCOc2ccc(S(=O)(=O)NCCCc3c[nH]c4ccccc34)cc2)CC1 [Example 60, N-(3-(1H-indol-3-yl)propyl)-4-(3-(1-methylpiperidin-4-yl)propoxy)benzenesulfonamide] | 50 to 70% |
| 1 to 10 µM |  | O=S(=O)(NCCCc1c[nH]c2ccc(Cl)cc12)c1ccc(OCCCN2CCC(F)CC2)cc1 [Example 80, N-(3-(5-chloro-1H-indol-3-yl)propyl)-4-(3-(4-fluoropiperidin-1-yl)propoxy)benzenesulfonamide] | 35 to 50% |
| 1 to 10 µM |  | O=S(=O)(NCCCc1c[nH]c2ccc(Cl)cc12)c1ccc(OCCCN2CCC(Cl)CC2)cc1 [Example 78, N-(3-(5-chloro-1H-indol-3-yl)propyl)-4-(3-(4-chloropiperidin-1-yl)propoxy)benzenesulfonamide] | 0 to 35% |

Further lines, the molecule ahead of its results:

| SMILES | IC50 [1, 3] | IC50 ([1]; Table 2, read-out: concentration at which Pin1 inhibitory activity was exhibited) | activity at 10 µM [2] |
| --- | --- | --- | --- |
| CN1CCN(CCCOc2ccc(S(=O)(=O)N3CCC(c4c[nH]c5ccccc45)CC3)cc2)CC1 [Example 57, 3-(1-((4-(3-(4-methylpiperazin-1-yl)propoxy)phenyl)sulfonyl)piperidin-4-yl)-1H-indole] | 10 to 100 µM |  | 70 to 100% |
| CCN1CCN(CCCOc2ccc(S(=O)(=O)NCCCc3c[nH]c4ccccc34)cc2)CC1 [Example 36, N-(3-(1H-indol-3-yl)propyl)-4-(3-(4-ethylpiperazin-1-yl)propoxy)benzenesulfonamide] | 1 to 10 µM |  | 70 to 100% |
| O=S(=O)(NCCCc1c[nH]c2ccccc12)c1ccc(OCCCN2CCNCC2)cc1 [Example 45, N-(3-(1H-indol-3-yl)propyl)-4-(3-(piperazin-1-yl)propoxy)benzenesulfonamide] | 1 to 10 µM |  | 70 to 100% |
| O=C1CCCN1CCCOc1ccc(S(=O)(=O)NCCCc2c[nH]c3ccccc23)cc1 [Example 44, N-(3-(1H-indol-3-yl)propyl)-4-(3-(2-oxopyrrolidin-1-yl)propoxy)benzenesulfonamide] | > 100 µM |  | 70 to 100% |
| CN(C)CCCOc1ccc(S(=O)(=O)NCCCc2c[nH]c3ccccc23)cc1 [Example 22, N-(3-(1H-indol-3-yl)propyl)-4-(3-(dimethylamino)propoxy)benzenesulfonamide] | 10 to 100 µM |  | 70 to 100% |
| O=S(=O)(NCCCc1c[nH]c2ccc(Cl)cc12)c1ccc(OCCCN2CCC(C(F)(F)F)CC2)cc1 [Example 81, N-(3-(5-chloro-1H-indol-3-yl)propyl)-4-(3-(4-(trifluoromethyl)piperidin-1-yl)propoxy)benzenesulfonamide] | 1 to 10 µM |  | 0 to 35% |
